In patent publication US10457703B2, “Bile acid derivatives as FXR/TGR5 agonists and methods of use thereof” (ENANTA PHARMACEUTICALS, INC., priority 2015, dated 2019):

Biological target: human FXR (NR1H4) (Homo sapiens (Human), UniProt Q96RI1)
Assay: Human FXR (NR1H4) Assay (Gal4 promoter driven luciferase reporter, Indigo Bioscience kit);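 for Efficacy (%): 100% equals the efficacy of CDCA; efficacy normalized to CDCA set as 100%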
Type: cell-based
Settings: for EC50: Human FXR (NR1H4) Assay, potency ranges; for Emax: read-out: Efficacy (%)
Description: ASSAYS Human FXR (NR1H4) Assay
Determination of a ligand mediated Gal4 promoter driven transactivation to quantify ligand binding mediated activation of FXR. FXR Reporter Assay kit purchased from Indigo Bioscience (Catalogue number: IB00601) to determine the potency and efficacy of compound developed by Enanta that can induce FXR activation. The principle application of this reporter assay system is to quantify functional activity of human FXR. The assay utilizes non-human mammalian cells, CHO (Chinese hamster ovary) cells engineered to express human NR1H4 protein (referred to as FXR). Reporter cells also incorporate the cDNA encoding beetle luciferase which catalyzes the substrates and yields photon emission. Luminescence intensity of the reaction is quantified using a plate-reading luminometer, Envision. Reporter Cells include the luciferase reporter gene functionally linked to an FXR responsive promoter. Thus, quantifying changes in luciferase expression in the treated reporter cells provides a sensitive surrogate measure of the changes in FXR activity. […] The assay is according to the manufacturer's instructions. In brief, the assay was performed in white, 96 well plates using final volume of 100 uL containing cells with different doses of compounds. Retrieve Reporter Cells from −80° C. storage. Perform a rapid thaw of the frozen cells by transferring a 10 ml volume of 37° C. cell recovery medium into the tube of frozen cells. Recap the tube of Reporter Cells and immediately place it in a 37° C. water bath for 5-10 minutes. Retrieve the tube of Reporter Cell Suspension from the water bath. Sanitize the outside surface of the tube with a 70% alcohol swab, and then transfer it into the cell culture hood. Dispense 90 μl of cell suspension into each well of the 96-well Assay Plate. Transfer the plate into 37° C. incubator, allowing the cells adherent to the bottom of the well. Dilute compounds in Dilution Plate (DP), and administrate to cells at Assay Plate (AP). DMSO content of the samples was kept at 0.2%. Cells were incubated for additional 22 hours before luciferase activities were measured. Thirty minutes before intending to quantify FXR activity, remove Detection Substrate and Detection Buffer from the refrigerator and place them in a low-light area so that they may equilibrate to room temperature. Remove the plate's lid and discard all media contents by ejecting it into an appropriate waste container. Gently tap the inverted plate onto a clean absorbent paper towel to remove residual droplets. Cells will remain tightly adhered to well bottoms. Add 100 μl of luciferase detection reagent to each well of the assay plate. Allow the assay plate to rest at room temperature for at least 5 minutes following the addition of LDR. Set the instrument (Envision) to perform a single 5 second “plate shake” prior to reading the first assay well. Read time may be 0.5 second (500 mSec) per well.

Sequence of human FXR (NR1H4) (Q96RI1 whole entry, the tested form may be a part): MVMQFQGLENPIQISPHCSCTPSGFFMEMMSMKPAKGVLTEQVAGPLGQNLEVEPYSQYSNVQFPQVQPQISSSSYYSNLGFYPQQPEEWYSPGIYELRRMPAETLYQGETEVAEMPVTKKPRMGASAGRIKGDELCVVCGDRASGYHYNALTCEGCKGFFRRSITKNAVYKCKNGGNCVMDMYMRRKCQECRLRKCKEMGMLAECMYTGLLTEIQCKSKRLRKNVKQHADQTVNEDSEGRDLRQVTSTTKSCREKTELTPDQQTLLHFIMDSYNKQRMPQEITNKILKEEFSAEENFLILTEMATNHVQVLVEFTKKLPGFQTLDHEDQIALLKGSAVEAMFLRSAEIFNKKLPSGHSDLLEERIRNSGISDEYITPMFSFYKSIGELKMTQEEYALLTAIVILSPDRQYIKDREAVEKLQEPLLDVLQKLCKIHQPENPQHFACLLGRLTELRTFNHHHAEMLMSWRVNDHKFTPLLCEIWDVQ

SMILES	EC50	Emax
CC[C@H]1[C@@H](O)[C@@H]2[C@H](CC[C@]3(C)[C@@H]([C@H](C)CCOC(=O)N(CCO)CCO)CC[C@@H]23)[C@@]2(C)CC[C@@H](O)C[C@@H]12 [Example 179]	100 to 1000 nM	333%
CC[C@H]1[C@@H](O)[C@@H]2[C@H](CC[C@]3(C)[C@@H]([C@H](C)CCOC(=O)NS(=O)(=O)N(C)C)CC[C@@H]23)[C@@]2(C)CC[C@@H](O)C[C@@H]12 [Example 50]	< 100 nM	291%
CC[C@H]1[C@@H](O)[C@@H]2[C@H](CC[C@]3(C)[C@@H]([C@H](C)CCOC(=O)Nc4ccc(F)cc4Cl)CC[C@@H]23)[C@@]2(C)CC[C@@H](O)C[C@@H]12 [Example 193]	1000 to 10000 nM	179%
CC[C@H]1[C@@H](O)[C@@H]2[C@H](CC[C@]3(C)[C@@H]([C@H](C)COC(=O)NS(=O)(=O)c4ccc(-n5cccn5)cc4)CC[C@@H]23)[C@@]2(C)CC[C@@H](O)C[C@@H]12 [Example 37]	< 100 nM	207%
CC[C@H]1[C@@H](O)[C@@H]2[C@H](CC[C@]3(C)[C@@H]([C@H](C)CCOC(=O)NS(=O)(=O)C4CCCCC4)CC[C@@H]23)[C@@]2(C)CC[C@@H](O)C[C@@H]12 [Example 104-a]	< 100 nM	242%
CC[C@H]1[C@@H](O)[C@@H]2[C@H](CC[C@]3(C)[C@@H]([C@H](C)CCOC(=O)N4CCCCC4)CC[C@@H]23)[C@@]2(C)CC[C@@H](O)C[C@@H]12 [Example 146]	< 100 nM	223%
CC[C@H]1[C@@H](O)[C@@H]2[C@H](CC[C@]3(C)[C@@H]([C@H](C)CCOC(=O)NS(=O)(=O)c4cccc(F)c4)CC[C@@H]23)[C@@]2(C)CC[C@@H](O)C[C@@H]12 [Example 66]	100 to 1000 nM	320%
CC[C@H]1[C@@H](O)[C@@H]2[C@H](CC[C@]3(C)[C@@H]([C@H](C)COC(=O)NC4CCCCC4)CC[C@@H]23)[C@@]2(C)CC[C@@H](O)C[C@@H]12 [Example 199]	1000 to 10000 nM	14%
CC[C@H]1[C@@H](O)[C@@H]2[C@H](CC[C@]3(C)[C@@H]([C@H](C)CCOC(=O)NC(C(C)C)C(C)C)CC[C@@H]23)[C@@]2(C)CC[C@@H](O)C[C@@H]12 [Example 176]	1000 to 10000 nM	368%
CCCCCNC(=O)OCC[C@@H](C)[C@H]1CC[C@H]2[C@@H]3[C@H](O)[C@H](CC)[C@@H]4C[C@H](O)CC[C@]4(C)[C@H]3CC[C@]12C [Example 150]	100 to 1000 nM	303%
CC[C@H]1[C@@H](O)[C@@H]2[C@H](CC[C@]3(C)[C@@H]([C@H](C)CCOC(=O)NS(=O)(=O)c4ccccn4)CC[C@@H]23)[C@@]2(C)CC[C@@H](O)C[C@@H]12 [Example 72]	1000 to 10000 nM	305%
CC[C@H]1[C@@H](O)[C@@H]2[C@H](CC[C@]3(C)[C@@H]([C@H](C)CCCOC(=O)NC4CC4)CC[C@@H]23)[C@@]2(C)CC[C@@H](O)C[C@@H]12 [Example 122]	100 to 1000 nM	204%
CC[C@H]1[C@@H](O)[C@@H]2[C@H](CC[C@]3(C)[C@@H]([C@H](C)CCOC(=O)NCC(=O)O)CC[C@@H]23)[C@@]2(C)CC[C@@H](O)C[C@@H]12 [Example 157]	1000 to 10000 nM	178%
CC[C@H]1[C@@H](O)[C@@H]2[C@H](CC[C@]3(C)[C@@H]([C@H](C)COC(=O)NS(=O)(=O)c4ccc(N5CCCC5)nc4)CC[C@@H]23)[C@@]2(C)CC[C@@H](O)C[C@@H]12 [Example 44-b]	< 100 nM	216%
CC[C@H]1[C@@H](O)[C@@H]2[C@H](CC[C@]3(C)[C@@H]([C@H](C)CCCOC(=O)N(CC)CC)CC[C@@H]23)[C@@]2(C)CC[C@@H](O)C[C@@H]12 [Example 132]	1000 to 10000 nM	205%
CC[C@H]1[C@@H](O)[C@@H]2[C@H](CC[C@]3(C)[C@@H]([C@H](C)CCOC(=O)NS(=O)(=O)c4ccc(OC(C)C)cc4)CC[C@@H]23)[C@@]2(C)CC[C@@H](O)C[C@@H]12 [Example 100]	< 100 nM	316%

SMILES	EC50	Emax
CC[C@H]1[C@@H](O)[C@@H]2[C@H](CC[C@]3(C)[C@@H]([C@H](C)CCOC(=O)N4CC[C@@H](O)C4)CC[C@@H]23)[C@@]2(C)CC[C@@H](O)C[C@@H]12 [Example 215]	< 100 nM	143%
CC[C@H]1[C@@H](O)[C@@H]2[C@H](CC[C@]3(C)[C@@H]([C@H](C)CCOC(=O)N4CC(=O)NS4(=O)=O)CC[C@@H]23)[C@@]2(C)CC[C@@H](O)C[C@@H]12 [Example 110]	1000 to 10000 nM	28%
CC[C@H]1[C@@H](O)[C@@H]2[C@H](CC[C@]3(C)[C@@H]([C@H](C)COC(=O)NS(=O)(=O)c4ccc(N5C6CCC5CC6)cc4)CC[C@@H]23)[C@@]2(C)CC[C@@H](O)C[C@@H]12 [Example 44-a]	< 100 nM	182%
CC[C@H]1[C@@H](O)[C@@H]2[C@H](CC[C@]3(C)[C@@H]([C@H](C)CCOC(=O)NC4CCCC4O)CC[C@@H]23)[C@@]2(C)CC[C@@H](O)C[C@@H]12 (some centres unmarked) [Example 195]	< 100 nM	288%
CC[C@H]1[C@@H](O)[C@@H]2[C@H](CC[C@]3(C)[C@@H]([C@H](C)COC(=O)NS(=O)(=O)c4ccc(-n5cnnn5)cc4)CC[C@@H]23)[C@@]2(C)CC[C@@H](O)C[C@@H]12 [Example 44-e]	100 to 1000 nM	204%
CC[C@H]1[C@@H](O)[C@@H]2[C@H](CC[C@]3(C)[C@@H]([C@H](C)CCCOC(=O)NS(=O)(=O)N(C)C)CC[C@@H]23)[C@@]2(C)CC[C@@H](O)C[C@@H]12 [Example 118]	100 to 1000 nM	367%
CC[C@H]1[C@@H](O)[C@@H]2[C@H](CC[C@]3(C)[C@@H]([C@H](C)CCOC(=O)N4CC[C@@H](CO)C4)CC[C@@H]23)[C@@]2(C)CC[C@@H](O)C[C@@H]12 [Example 212]	< 100 nM	479%
CC[C@H]1[C@@H](O)[C@@H]2[C@H](CC[C@]3(C)[C@@H]([C@H](C)CCOC(=O)N4CCC4)CC[C@@H]23)[C@@]2(C)CC[C@@H](O)C[C@@H]12 [Example 162]	100 to 1000 nM	277%
CC[C@H]1[C@@H](O)[C@@H]2[C@H](CC[C@]3(C)[C@@H]([C@H](C)CCOC(=O)N4CC[C@H](CO)C4)CC[C@@H]23)[C@@]2(C)CC[C@@H](O)C[C@@H]12 [Example 211]	< 100 nM	198%
CC[C@H]1[C@@H](O)[C@@H]2[C@H](CC[C@]3(C)[C@@H]([C@H](C)CCOC(=O)NS(=O)(=O)c4ccc(OC(F)(F)F)c(F)c4)CC[C@@H]23)[C@@]2(C)CC[C@@H](O)C[C@@H]12 [Example 104-k]	100 to 1000 nM	180%
CC[C@H]1[C@@H](O)[C@@H]2[C@H](CC[C@]3(C)[C@@H]([C@H](C)CCOC(=O)NS(=O)(=O)C[C@]45CCC(CC4=O)C5(C)C)CC[C@@H]23)[C@@]2(C)CC[C@@H](O)C[C@@H]12 [Example 58]	< 100 nM	366%
CC[C@H]1[C@@H](O)[C@@H]2[C@H](CC[C@]3(C)[C@@H]([C@H](C)CCOC(=O)NS(=O)(=O)c4ccccc4Cl)CC[C@@H]23)[C@@]2(C)CC[C@@H](O)C[C@@H]12 [Example 76]	100 to 1000 nM	234%
CC[C@H]1[C@@H](O)[C@@H]2[C@H](CC[C@]3(C)[C@@H]([C@H](C)CCOC(=O)NS(=O)(=O)c4ccccc4C(C)(C)C)CC[C@@H]23)[C@@]2(C)CC[C@@H](O)C[C@@H]12 [Example 85]	< 100 nM	240%
CC[C@H]1[C@@H](O)[C@@H]2[C@H](CC[C@]3(C)[C@@H]([C@H](C)COC(=O)NS(=O)(=O)c4ccc(-n5cncn5)cc4)CC[C@@H]23)[C@@]2(C)CC[C@@H](O)C[C@@H]12 [Example 44-f]	< 100 nM	216%
CC[C@H]1[C@@H](O)[C@@H]2[C@H](CC[C@]3(C)[C@@H]([C@H](C)CCOC(=O)N4CCCCS4(=O)=O)CC[C@@H]23)[C@@]2(C)CC[C@@H](O)C[C@@H]12 [Example 104-e]	100 to 1000 nM	239%
